Results on 2 substances are retold here after patent US20230203485A1, “METHODS FOR MODULATING MHC-I EXPRESSION AND IMMUNOTHERAPY USES THEREOF” (Dana-Farber Cancer Institute, Inc., priority 2020, published 2023).

Holding throughout (assay type): cell-based, human
Assay [1] concerns class I pathway and IFN-γ pathway proteins (STAT1/p-STAT1) in MCC lines. Briefly: Whole proteome analysis (TMT LC-MS/MS) of MCC lines with and without IFNγ. To be noted: MCC lines non-IFN-responsive by flow cytometry. How it is done:
FIG. 2D is a proteomics heatmap depicting the relative expression of key IFN-γ pathway components in 4 of the MCC lines, both at baseline and after IFN-γ treatment.
FIG. 2E comprises graphs summarizing a targeted analysis of normalized STAT1 peptide counts (left) and STAT-Y701y phosphosite counts (right) between untreated and IFN-γ-treated cell lines.
Protein expression of MCC cell lines was assessed as described previously (Mertins et al. (2018) Nature Protocols 13 (7): 1632-61. Briefly, cell pellets of MCC cell lines with and without IFNγ treatment were lysed in 8M Urea and digested to peptides using LysC and Trypsin (Promega). 400 μg peptides were labeled with TMT10 reagents (Thermo Fisher, 126-MCC290, 127N-MCC350_IFN, 127C MCC275_IFN, 128N MCC275, 128C MCC350, 129N_MCC301_IFN, 129C-MCC277, 130N-MCC290_IFNy, 130C MCC277 IFN, 131 MCC301) and then pooled for subsequent fractionation and analysis. Pooled peptides were separated into 24 fractions using offline high pH reversed phase fractionation. 1 μg per fraction was loaded onto an analytical column (20-30 cm, 1.9 μm C18 Reprosil beads (Dr. Maisch HPLC GmbH), packed in-house PicoFrit 75 μM inner diameter, 10 μM emitter (New Objective)). […] During data dependent acquisition, peptides were analyzed on a Fusion Lumos (Thermo Scientific). […]
(Flow cytometry measures light scatter and fluorescence of single cells or particles in a stream.)

A further assay has as its system class I gene transcripts. The experiment in a line: RNA-seq of MCC lines before and after IFN-γ stimulation. How it is done:
For samples from the MCC tumors and newly generated cell lines, RNA was first assessed for quality using the Agilent Bioanalyzer (DV200 metric). 100 ng of RNA were used as the input for first strand cDNA synthesis using Superscript III reverse transcriptase and Illumina's TruSeq RNA Access Sample Prep Kit. Synthesis of the second strand of cDNA was followed by indexed adapter ligation with UMI (unique molecular index) adaptors. Subsequent PCR amplification enriched for adapted fragments. Amplified libraries were quantified, normalized, pooled, and hybridized with exome targeting oligos. Following hybridization, bead clean-up, elution, and PCR was performed to prepare library pools for sequencing on Illumina flowcell lanes. Transcriptomes were sequenced to a coverage of at least 50 million reads in pairs.
Gene counts were obtained from BAM files using featureCounts version 2.0.0. Very lowly expressed genes with average count across samples less than 1 were excluded from analysis. […]
Differential expression analysis was carried out between IFN-γ plus and minus samples (adjusting for viral status as a covariate) using the negative binomial GLM Wald test of DESeq2, where significance was assessed using the p-values adjusted for multiple comparisons under default settings. […]

In another assay the test system is HLA-DR. Briefly: IFN-γ treatment, HLA-DR by flow cytometry. To be noted: MCC-301 cell line. How it is done:
Cells were dissociated with Versene and incubated with 5 μL Human TruStain FcX (Fc Receptor Blocking Solution; Biolegend #422302) per million cells in 100 μL at room temperature for 10 min. Fluorophore-conjugated antibodies or respective isotype controls were added and incubated for another 30 min at 4° C. Cells were then washed once with PBS and resuspended in PBS or 4% paraformaldehyde and analyzed on an LSR Fortessa cytometer. For HLA-I and HLA-II detection, the following antibodies were used: HLA-ABC (W6/32 clone) conjugated to PE (BioLegend #311406), APC (BioLegend #311410), or AF647 (Santa Cruz Biotechnology #sc32235 AF647), and HLA-DR-FITC (BioLegend #307604).

“IFN-y: type II interferon, recombinant human, used to treat MCC cells”: the STAT1/p-STAT1 protein expression entry in assay [1] is recorded as “lack of IFN-induced STAT1/p-STAT1 protein expression”.

Regarding “IFN-γ: interferon gamma used to stimulate MCC cell lines”, in the assay on class I gene transcripts (MCC lines, IFN-γ treatment), the “class I gene transcripts” value is reported as “markedly upregulated”. For the same substance, the “HLA-A, -B, and -C mRNA upregulation” value in the assay on class I gene transcripts (MCC-336 (non-IFN-γ-responsive)) was “lack of IFN-induced HLA-A, -B, and -C mRNA upregulation”. Besides, the HLA-DR expression entry in the assay with HLA-DR is “upregulated”.
